The results in this text go back to ChEMBL document CHEMBL1201862, “PubChem BioAssay data set” (2004).

What all share (experiment): growth of human tumour cells (NCI), 48 h
Experiment [1] deals with HCC 2998.
Experiment [2] deals with NCI-H23.
The subject of experiment [3] is EKVX.
Experiment [4] concerns SR.
Experiment [5] relates to OVCAR-5.
Experiment [6] concerns HCT-15.
For experiment [7], the system named is BT-549.
The test system of experiment [8] is SF-268.
Experiment [9] concerns Malme-3M.
Experiment [10] relates to SF-295.
In experiment [11] the test system is ACHN.
The subject of experiment [12] is NCI-H522.
The subject of experiment [13] is UACC-257.
For experiment [14], the system named is PC-3.
The test system of experiment [15] is IGROV-1.
Experiment [16] concerns CCRF-CEM.
Experiment [17] concerns HL-60.
The subject of experiment [18] is T47D.
For experiment [19], the system named is DMS-114.

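Assay format: 96-well plates, 48-hour exposure. Here, GI50 denotes the concentration required for 50% inhibition of growth.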 The source made the active and inactive calls. No stated cut-off is given here; in the data, active = GI50 up to about 1.1 µM and inactive = higher. Where a SMILES comes first, the peptide text is derived from it. [ ]: non-standard residue; d: D form. The star is where a group is joined. Phe(4-NO2) = N[CH](Cc1ccc([N+](=O)[O-])cc1)C(=O)O; Boc = CC(C)(C)OC(=O)*; OtBu = CC(C)(C)O*

As to `Cc1n[nH]c(=O)n1C1CCCC1`, the GI50 is > 100 µM (inactive) in experiment [1]; > 100 µM (inactive) in experiment [2]; > 100 µM (inactive) in [3]; > 100 µM (inactive) in experiment [4]; > 100 µM (inactive) in experiment [5]; over 100 µM in [6]. Moreover, the GI50 in [7], in experiment [8], in experiment [9], in experiment [10], in experiment [11] and in experiment [12] was > 100 µM (inactive) each time. For the same molecule, the GI50 in [13], in experiment [14], in experiment [15], in [16], in experiment [17] and in experiment [18] was > 100 µM (inactive) in each case.
For the molecule `CC(=O)OCCN1c2ccccc2Sc2cnccc21`, the GI50 in experiment [1] is > 10 µM (inactive); in experiment [2], > 10 µM (inactive); in [3] it was 8.55 µM (inactive); in experiment [4], > 10 µM (inactive); in experiment [5], > 10 µM (inactive); in [6] it was over 10 µM. The GI50 in experiment [7], in experiment [8], in [9], in experiment [10], in [11] and in [12] was > 10 µM (inactive) in each case. The GI50 in [13], in experiment [14], in [15], in experiment [16], in experiment [17] and in experiment [18] was > 10 µM (inactive) in each case.
`COC(=O)C(Cc1ccc([N+](=O)[O-])cc1)NC(=O)C(CC(=O)OC(C)(C)C)NC(=O)OC(C)(C)C` (configuration not stated) (Boc-Asp(OtBu)-[Phe(4-NO2)]-OMe; configuration not given here): the GI50 was 35.2 µM (inactive) in [1]; > 100 µM (inactive) in experiment [2]; > 100 µM (inactive) in experiment [3]; 21.4 µM (inactive) in experiment [4]; > 100 µM (inactive) in [5]; over 100 µM in [6]. Besides, the GI50 is > 100 µM (inactive) in experiment [7]; > 100 µM (inactive) in experiment [8]; > 100 µM (inactive) in experiment [9]; > 100 µM (inactive) in experiment [10]; > 100 µM (inactive) in experiment [11]; 63.5 µM (inactive) in experiment [12]. The GI50 in experiment [13], in [14], in [15], in experiment [16], in [17] and in experiment [18] was > 100 µM (inactive) in each case.
In the case of `C[N+]1(CCC[N+]2(C)CC3C4C=CC(CC4)C3C2)CCOCC1` (configuration not stated), the GI50 in [1] is 86.7 µM (inactive); in experiment [2] it was > 100 µM (inactive); in experiment [3], > 100 µM (inactive); in experiment [4] it was > 100 µM (inactive); in experiment [5], > 100 µM (inactive); in [6] it was over 100 µM. Also, the GI50 in experiment [7], in experiment [8], in experiment [9], in experiment [10], in experiment [11] and in [12] was > 100 µM (inactive) in each case. In addition, the GI50 in experiment [13], in experiment [14], in experiment [15], in experiment [16], in experiment [17] and in experiment [18] was > 100 µM (inactive) throughout.
With `O=c1cc(C(F)(F)F)c2cc3c(cc2o1)NCCC3`, the GI50 in [1] is > 100 µM (inactive); in [2] it was > 100 µM (inactive); in experiment [3] it was 6.4 µM (inactive); in experiment [4], > 100 µM (inactive); in [5], > 100 µM (inactive); in experiment [6], over 100 µM. For the same molecule, the GI50 was > 100 µM (inactive) in experiment [7]; 24.5 µM (inactive) in experiment [8]; > 100 µM (inactive) in experiment [9]; 35 µM (inactive) in [10]; > 100 µM (inactive) in [11]; 49.5 µM (inactive) in experiment [12]. Moreover, the GI50 in [13] was > 100 µM (inactive); in experiment [14], 85.3 µM (inactive); in experiment [15] it was 97.3 µM (inactive); in experiment [16] it was > 100 µM (inactive); in experiment [17], > 100 µM (inactive); in experiment [18] it was 9.46 µM (inactive).
With `O=C(CC(C(=O)c1cccs1)c1ccsc1)c1ccsc1` (configuration not stated), the GI50 is 34.1 µM (inactive) in [1]; 53 µM (inactive) in [2]; 38 µM (inactive) in experiment [3]; 32.6 µM (inactive) in [4]; > 100 µM (inactive) in experiment [5]; 42.1 µM in experiment [6]. The GI50 was 28.3 µM (inactive) in [7]; 51.6 µM (inactive) in experiment [8]; 78.5 µM (inactive) in [9]; 24.6 µM (inactive) in experiment [10]; 58.2 µM (inactive) in experiment [11]; 20.4 µM (inactive) in experiment [12]. The GI50 in [13] is 70.5 µM (inactive); in experiment [14], 29 µM (inactive); in experiment [15] it was 54.1 µM (inactive); in experiment [16] it was 29 µM (inactive); in experiment [17] it was 40.1 µM (inactive); in [18], 30.6 µM (inactive).
Turning to `Nc1ccccc1.O=P(O)(OP(=O)(O)c1ccccc1)c1ccccc1`, the GI50 was > 100 µM (inactive) in experiment [1]; > 100 µM (inactive) in experiment [2]; > 100 µM (inactive) in [3]; > 100 µM (inactive) in experiment [4]; > 100 µM (inactive) in experiment [5]; 89.3 µM in experiment [6]. For the same molecule, the GI50 in [7] was > 100 µM (inactive); in [8], > 100 µM (inactive); in experiment [9], > 100 µM (inactive); in [10] it was 96.4 µM (inactive); in experiment [11] it was > 100 µM (inactive); in experiment [12] it was > 100 µM (inactive). For the same molecule, the GI50 in experiment [13] is > 100 µM (inactive); in experiment [14] it was > 100 µM (inactive); in [15] it was > 100 µM (inactive); in [16], > 100 µM (inactive); in [17] it was 65.3 µM (inactive); in [18], > 100 µM (inactive).
For the molecule `CCN(CC)CCCNc1nncc2cc3c([nH]c4ccc(OC)cc43)c(C)c12`, the GI50 in experiment [1] is 6.1 µM (inactive); in experiment [2], 10.7 µM (inactive); in experiment [3], 15.8 µM (inactive); in experiment [4], 4.63 µM (inactive); in experiment [5], 11.5 µM (inactive); in [6], 19.3 µM. For the same molecule, the GI50 in [7] is 16.3 µM (inactive); in experiment [8], 6.65 µM (inactive); in [9], 13.7 µM (inactive); in experiment [10], 12.6 µM (inactive); in experiment [11], 8.26 µM (inactive); in experiment [12], 2.7 µM (inactive). In addition, the GI50 in [13] is 17.6 µM (inactive); in [14], 4.01 µM (inactive); in [15], 4.14 µM (inactive); in experiment [16], 2.93 µM (inactive); in experiment [17] it was < 0.01 µM (active); in experiment [18], 11.8 µM (inactive).
Take `COc1cccc(C2CC(C)(N3CCCC3)Oc3cc4c(cc32)OCO4)c1O` (configuration not stated): the GI50 in experiment [1] is 23 µM (inactive); in experiment [2], 27.4 µM (inactive); in experiment [3], 63.2 µM (inactive); in experiment [4], 3.81 µM (inactive); in experiment [5], 29.7 µM (inactive); in experiment [6] it was 11.3 µM. The GI50 in experiment [7] is 16.9 µM (inactive); in experiment [8] it was 30.3 µM (inactive); in [9], 24.8 µM (inactive); in experiment [10], 22.1 µM (inactive); in experiment [11] it was 36.7 µM (inactive); in experiment [12] it was 19.1 µM (inactive). Moreover, the GI50 in [13] is 35.4 µM (inactive); in experiment [14] it was 10.6 µM (inactive); in experiment [15], 26.2 µM (inactive); in experiment [16] it was 15.2 µM (inactive); in experiment [17] it was 15.4 µM (inactive); in [18], 30.8 µM (inactive).
Regarding `CC1=NN(c2nc(N)nc(CBr)n2)C(C)(C)C1`, the GI50 is 16.1 µM (inactive) in experiment [1]; 9.86 µM (inactive) in experiment [2]; 3.66 µM (inactive) in experiment [3]; 2.88 µM (inactive) in experiment [4]; 3.71 µM (inactive) in experiment [5]; 3.61 µM in experiment [6]. The GI50 in experiment [7] was 11.8 µM (inactive); in experiment [8], 6.01 µM (inactive); in [9] it was 2.45 µM (inactive); in experiment [10], 12.1 µM (inactive); in [11] it was 3.56 µM (inactive); in experiment [12], 0.234 µM (active). Also, the GI50 in [13] was 11.9 µM (inactive); in experiment [14], 5.33 µM (inactive); in experiment [15], 1.49 µM (inactive); in experiment [16] it was 0.229 µM (active); in [17], 0.975 µM (active); in experiment [18], 5.97 µM (inactive).
`Cc1nc2ccccc2c(=O)n1/N=C(\N=N\c1ccccc1Cl)c1ccccc1`: the GI50 in [2] is 44.5 µM (inactive); in [3] it was 20.8 µM (inactive); in experiment [6], 22.2 µM; in experiment [8], 46.3 µM (inactive); in [19], 15.5 µM (inactive); in [12], 19.1 µM (inactive). For the same molecule, the GI50 is 19.4 µM (inactive) in experiment [15], 17.3 µM (inactive) in experiment [16] and 15.3 µM (inactive) in experiment [17].
With `COc1ccc2c(c1)-c1nc(=S)n(CCCN(C)C)c3ccc([N+](=O)[O-])c(c13)N2`, the GI50 in [1] was 1.5 µM (inactive); in experiment [2] it was 1.08 µM (active); in experiment [3], 0.805 µM (active); in experiment [4], 0.506 µM (active); in experiment [5], 0.611 µM (active); in [6], 0.484 µM. The GI50 in [7] is 7.21 µM (inactive); in experiment [8] it was 0.617 µM (active); in experiment [9], 0.518 µM (active); in experiment [10] it was 1.81 µM (inactive); in experiment [11] it was 0.296 µM (active); in [12], 0.766 µM (active). In addition, the GI50 was 1.22 µM (inactive) in [13]; 0.771 µM (active) in experiment [14]; 0.345 µM (active) in experiment [15]; 0.205 µM (active) in experiment [16]; 0.0269 µM (active) in experiment [17]; 18.7 µM (inactive) in experiment [18].
